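The compound was tested at five concentrations on cells cultured in 96-well plates, with a 48-hour exposure period. The concentration for 50% growth inhibition is given as GI50. Definition used: TGI = concentration required for complete inhibition of growth.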
Key:
Experiment in all cases: NCI-60 cell line screen, 48 h
A549 NSCLC = system: A549 NSCLC
ACHN renal = system: ACHN renal
CAKI-1 renal = system: CAKI-1 renal
EKVX NSCLC = system: EKVX NSCLC
MDA-MB-231 breast = system: MDA-MB-231 breast
OVCAR-8 ovarian = system: OVCAR-8 ovarian
SF-268 CNS = system: SF-268 CNS
SF-539 CNS = system: SF-539 CNS
SK-MEL-5 melanoma = system: SK-MEL-5 melanoma
SW-620 colon = system: SW-620 colon

Structure (SMILES)	GI50 (A549 NSCLC) [µM]	TGI (A549 NSCLC) [µM]	GI50 (ACHN renal) [µM]	TGI (ACHN renal) [µM]	GI50 (CAKI-1 renal) [µM]	TGI (CAKI-1 renal) [µM]	GI50 (EKVX NSCLC) [µM]	TGI (EKVX NSCLC) [µM]	GI50 (MDA-MB-231 breast) [µM]	TGI (MDA-MB-231 breast) [µM]	GI50 (OVCAR-8 ovarian) [µM]	TGI (OVCAR-8 ovarian) [µM]	GI50 (SF-268 CNS) [µM]	TGI (SF-268 CNS) [µM]	GI50 (SF-539 CNS) [µM]	TGI (SF-539 CNS) [µM]	GI50 (SK-MEL-5 melanoma) [µM]	TGI (SK-MEL-5 melanoma) [µM]	GI50 (SW-620 colon) [µM]	TGI (SW-620 colon) [µM]
N#C/C(=C/N1CCN(C(=O)c2ccco2)C1=S)C(=O)c1ccccc1	22	58.4	16.6	72.5	12.5	44.4	17.8	48	13.7	40.8	25.4	> 100	31.2	93.3	2.21	5.39	8.25	22.2	5.94	38.3
Cc1cc(S(=O)(=O)N/N=C(\Sc2cc(Cl)c(C)cc2S(N)(=O)=O)c2ccc(Cl)cc2)c(Cl)cc1Cl	36.6	> 100	25.6	73.9	61.8	> 100	> 100	> 100	34.2	> 100	> 100	> 100	> 100	> 100	28.6	61.5	> 100	> 100	40.4	> 100
Cc1cc(I)cc(CN(C)CCCN2CCOCC2)c1O	59.4	> 100	> 100	> 100	29.4	> 100	72.4	> 100	39.7	> 100	> 100	> 100	38.3	> 100	16.7	39.4	15.5	28.9	33.5	> 100
COc1cccc(/C(COc2ccc3c(c2)oc(=O)c2cc(OC)ccc23)=N/O)c1	7.57	> 100	3.64	> 100	6.7	> 100	16.1	> 100	4.37	71	9.77	> 100	9.58	> 100	6.55	81.5	4.95	80.5	3.9	> 100
CC(=O)O[C@H](C[C@H](C(C)C)N(C)C(=O)[C@@H](NC(=O)[C@H]1CCCCN1C)C(C)C)c1nc(C(=O)N[C@@H](Cc2ccccc2)C[C@H](C)C(=O)O)c(CCOCc2ccccc2)s1	< 0.001	> 10	0.00105	> 10	< 0.001	> 10	< 0.001	> 10	< 0.001	–	< 0.001	> 10	< 0.001	> 10	< 0.001	0.00174	< 0.001	0.00159	< 0.001	> 10
COc1ccc(C(=O)COc2cccc(/C=C3\Oc4ccc5ccccc5c4C3=O)c2)cc1	21.1	52.5	15.2	29	10.7	23.5	14.4	42.8	11.9	25.6	4.57	14.9	3.72	14	13.4	26.3	10.9	23.9	1.87	3.77
Cc1c(C2=C(Br)C(=O)N(C)C2=O)c(=O)n(C)c(=O)n1C	–	> 100	–	94.3	–	34.8	–	41.8	–	65.3	–	> 100	–	> 100	–	34.6	–	52.1	–	> 100
CCOC(=O)CNC(=O)c1ccccc1Nc1ccnc(C(F)(F)F)c1	> 53.5	> 100	> 58.2	> 100	20.9	> 62.5	30.6	> 96	33.4	> 73.1	> 50.8	> 82.8	35.7	> 71.6	28	> 100	14.8	40.4	29.9	> 74.4
CCC(C)(C)c1ccc(OCCCCCCN2CCNCC2)cc1	3.77	13.7	2.19	5.45	2.26	7.09	9.73	27.1	1.44	3.11	2.45	5.3	3.78	14	1.85	3.65	1.76	3.24	1.95	3.97
N=C(N)SCc1cccc(-c2nc3ccccc3c(=O)o2)c1	–	> 100	–	> 100	–	> 100	–	> 100	–	> 100	–	> 100	–	> 100	–	> 100	–	> 100	–	> 100
O=c1[nH]cnc2cccc(Cl)c12	–	> 100	–	> 100	–	> 100	–	> 100	–	> 100	–	> 100	–	> 100	–	> 100	–	> 100	–	> 100
CCCCC1(CN2CCOCC2)S/C(=N/c2nc(CC(=O)OCC)cs2)NC1=O (centres undefined)	33.4	> 100	33.9	> 100	29.9	> 100	38.9	> 100	25.8	74.2	33.9	> 100	37.6	> 100	29	89.9	24.2	75.2	35.9	> 100
CC(C)S(=O)(=O)c1ccccc1Nc1nc(Nc2cccc(NC(=O)CN)c2)ncc1Cl	0.147	9.03	0.124	6.95	0.2	7.25	1.5	10.1	0.239	3.97	0.286	6.97	0.189	1.3	0.0455	0.334	0.136	0.894	0.0394	4.09
